Experimental data reported in US4956294A, “Culture of Streptoverticillium synroense for producing an antibacterial” (Merck & Co., Inc., priority 1989, dated 1990).
Values after ≈ are worked out from the molar mass of the structure shown.

What was measured:
C. perfringens 3508 = experiment: microbe, parasite or virus in culture; format: cell-based; details: Clostridium perfringens, 3508, 48 h
[1] = test system: Ps. aeruginosa RPL11+ 3350; experiment: Agar dilution, trypticase soy agar; details: Pseudomonas aeruginosa, 20 h
[2] = test system: Propionibacterium acnes 2249; experiment: Anaerobic agar dilution, Wilkens-Chalgren agar; format: cell-based; details: Cutibacterium acnes, 2249; anaerobic, inoculum 10^6 cfu/spot, 35° C., 48 hours; read-out: MIC
B. ovatus Pen^r 3248 = experiment: Anaerobic agar dilution, Wilkens-Chalgren agar; format: cell-based; details: Bacteroides ovatus; anaerobic, inoculum 10^6 cfu/spot, 35° C., 48 hours; read-out: MIC
Ent. cloacae P99- 2647 [3] = experiment: Agar dilution, trypticase soy agar; details: Enterobacter cloacae, P992647, 20 h
C. perfringens 3510 = experiment: microbe, parasite or virus in culture; format: cell-based; details: Clostridium perfringens, 3510, 48 h
[4] = test system: S. aureus Gm^r Meth^r 4310; experiment: Agar dilution, trypticase soy agar; details: Staphylococcus aureus, 20 h
[5] = test system: C. difficile Clind^r 4273; experiment: Anaerobic agar dilution, Wilkens-Chalgren agar; format: cell-based; details: Clostridioides difficile; anaerobic, inoculum 10^6 cfu/spot, 35° C., 48 hours; read-out: MIC
E. coli TEM 2+ DC2 4352 = experiment: Agar dilution, trypticase soy agar; details: Escherichia coli, 20 h
[6] = test system: Fusobacterium mortiferum Fox^r 3345; experiment: Anaerobic agar dilution, Wilkens-Chalgren agar; format: cell-based; details: anaerobic, inoculum 10^6 cfu/spot, 35° C., 48 hours, read-out: MIC
[7] = test system: B. fragilis Clind^r, Fox^r, Tet^r 4360; experiment: Anaerobic agar dilution, Wilkens-Chalgren agar; format: cell-based; details: Bacteroides fragilis; anaerobic, inoculum 10^6 cfu/spot, 35° C., 48 hours; read-out: MIC
B. fragilis Pen^r 3214 = experiment: Anaerobic agar dilution, Wilkens-Chalgren agar; format: cell-based; details: Bacteroides fragilis; anaerobic, inoculum 10^6 cfu/spot, 35° C., 48 hours; read-out: MIC
[8] = test system: B. thetalotamicron Clind^r, NCCLS control strain 4420; experiment: Anaerobic agar dilution, Wilkens-Chalgren agar; format: cell-based; details: anaerobic, inoculum 10^6 cfu/spot, 35° C., 48 hours; read-out: MIC
C. difficile Fox^r 4380 = experiment: Anaerobic agar dilution, Wilkens-Chalgren agar; format: cell-based; details: Clostridioides difficile; anaerobic, inoculum 10^6 cfu/spot, 35° C., 48 hours; read-out: MIC
[9] = test system: B. thetalotamicron Clind^r 4362; experiment: Anaerobic agar dilution, Wilkens-Chalgren agar; format: cell-based; details: anaerobic, inoculum 10^6 cfu/spot, 35° C., 48 hours; read-out: MIC
[10] = test system: Actinomyces naeslundii 4053; experiment: Anaerobic agar dilution, Wilkens-Chalgren agar; format: cell-based; details: Actinomyces naeslundii, 4053; anaerobic, inoculum 10^6 cfu/spot, 35° C., 48 hours; read-out: MIC
Sal. typhimurium 3860 [11] = experiment: Agar dilution, trypticase soy agar; details: Salmonella enterica, 20 h
C. perfringens 3511 = experiment: microbe, parasite or virus in culture; format: cell-based; details: Clostridium perfringens, 3511, 48 h
C. perfringens 3512 = experiment: microbe, parasite or virus in culture; format: cell-based; details: Clostridium perfringens, 3512, 48 h
[12] = test system: Peptostreptococcus anaerobius 3282; experiment: Anaerobic agar dilution, Wilkens-Chalgren agar; format: cell-based; details: Peptostreptococcus anaerobius, 3282; anaerobic, inoculum 10^6 cfu/spot, 35° C., 48 hours; read-out: MIC
Ent. cloacae P99+ 2646 = experiment: Agar dilution, trypticase soy agar; details: Enterobacter cloacae, 20 h
[13] = test system: B. fragilis NCCLS control strain 4419; experiment: Anaerobic agar dilution, Wilkens-Chalgren agar; format: cell-based; details: Bacteroides fragilis; anaerobic, inoculum 10^6 cfu/spot, 35° C., 48 hours; read-out: MIC
K. pneumoniae K1+ 4354 = experiment: Agar dilution, trypticase soy agar; details: Klebsiella pneumoniae, 20 h
K. pneumoniae 4005 = experiment: Agar dilution, trypticase soy agar; details: Klebsiella pneumoniae, 4005, 20 h
[14] = test system: Bacteroides fragilis Met^r . Pen^r 4324; experiment: Anaerobic agar dilution, Wilkens-Chalgren agar; format: cell-based; details: anaerobic, inoculum 10^6 cfu/spot, 35° C., 48 hours, read-out: MIC
B. asaccharolyticus 4271 = experiment: Anaerobic agar dilution, Wilkens-Chalgren agar; format: cell-based; details: Porphyromonas asaccharolytica, 4271; anaerobic, inoculum 10^6 cfu/spot, 35° C., 48 hours; read-out: MIC
Eubacterium limosum 3344 = experiment: Anaerobic agar dilution, Wilkens-Chalgren agar; format: cell-based; details: inoculum 10^6 cfu/spot, 35° C., 48 hours
Procedure: (a) Wilkens-Chalgren agar was used instead of antagonist-free medium (Roche);
(b) The inoculum/spot was about 10^6 instead of about 10^4 ;
(c) The incubation period was for 48 hours, not 24 hours; and
(d) Incubations were performed under anaerobic conditions.

[15] = test system: Bifidobacterium dentium Fox^r 4427; experiment: Anaerobic agar dilution, Wilkens-Chalgren agar; format: cell-based; details: 48 h
[16] = test system: B. distasonis Pen^r, Fox^r, Clind^r 4361; experiment: Anaerobic agar dilution, Wilkens-Chalgren agar; format: cell-based; details: Parabacteroides distasonis; anaerobic, inoculum 10^6 cfu/spot, 35° C., 48 hours; read-out: MIC
E. coli 2891 [17] = experiment: Agar dilution, trypticase soy agar; details: Escherichia coli, 2891, 20 h
[18] = test system: Prot. mirabilis Gm^r 2830; experiment: Agar dilution, trypticase soy agar; details: Proteus mirabilis, 20 h
C. perfringens 3513 = experiment: microbe, parasite or virus in culture; format: cell-based; details: Clostridium perfringens, 3513, 48 h
E. coli TEM 2+ 4351 [19] = experiment: Agar dilution, trypticase soy agar; details: Escherichia coli, 20 h
Prot. vulgaris 2829 [20] = experiment: Agar dilution, trypticase soy agar; details: Proteus vulgaris, 2829, 20 h
[21] = test system: Veillonella alcalescens 1952; experiment: Anaerobic agar dilution, Wilkens-Chalgren agar; format: cell-based; details: Veillonella parvula, 1952; anaerobic, inoculum 10^6 cfu/spot, 35° C., 48 hours; read-out: MIC
C. ramosum 4272 = experiment: Anaerobic agar dilution, Wilkens-Chalgren agar; format: cell-based; details: Thomasclavelia ramosa, 4272; anaerobic, inoculum 10^6 cfu/spot, 35° C., 48 hours; read-out: MIC
Prot. morganii Sm^r 2833 = experiment: Agar dilution, trypticase soy agar; details: Morganella morganii, 20 h
[22] = test system: B. distasonis Pen^r, Fox^r 3445; experiment: Anaerobic agar dilution, Wilkens-Chalgren agar; format: cell-based; details: Parabacteroides distasonis, 48 h
Ser. marcescens 2840 [23] = experiment: Agar dilution, trypticase soy agar; details: Serratia marcescens, 2840, 20 h
C. perfringens 2237 = experiment: microbe, parasite or virus in culture; format: cell-based; details: Clostridium perfringens, 2237, 48 h
C. perfringens 3509 = experiment: microbe, parasite or virus in culture; format: cell-based; details: Clostridium perfringens, 3509, 48 h
[24] = test system: Clostridium perfringens NCCLS control strain 4418; experiment: microbe, parasite or virus in culture; format: cell-based; details: 48 h
Sal. typhimurium 3860 [25] = experiment: Agar dilution, antagonist-free medium; details: Salmonella enterica, 20 h
Ps. aeruginosa 4279 = experiment: Agar dilution, antagonist-free medium; details: Pseudomonas aeruginosa, 4279, 20 h
E. coli 2891 [26] = experiment: Agar dilution, antagonist-free medium; details: Escherichia coli, 2891, 20 h
Prot. vulgaris 2829 [27] = experiment: Agar dilution, antagonist-free medium; details: Proteus vulgaris, 2829, 20 h
Staph. aureus 2865 = experiment: Agar dilution, antagonist-free medium; details: Staphylococcus aureus, 2865, 20 h
E. coli DC2 4353 = experiment: Agar dilution, antagonist-free medium; details: Escherichia coli, DC24353, 20 h
Ent. cloacae P99- 2647 [28] = experiment: Agar dilution, antagonist-free medium; details: Enterobacter cloacae, P992647, 20 h
E. coli TEM 2+ 4351 [29] = experiment: Agar dilution, antagonist-free medium; details: Escherichia coli, 20 h
Ser. marcescens 2840 [30] = experiment: Agar dilution, antagonist-free medium; details: Serratia marcescens, 2840, 20 h

CO[C@@]1(NC(=O)Cc2cccs2)C(=O)N2C(C(=O)O)=C(COC(N)=O)CS[C@@H]21 [CEFOXITIN, Cefoxitin, reference compound]
MIC (C. perfringens 3508): 0.25 µg/mL (≈ 0.585 µM) | MIC [1]: > 128 µg/mL | MIC [2]: 0.06 µg/mL (≈ 0.14 µM) | MIC (B. ovatus Pen^r 3248): 32 µg/mL (≈ 74.9 µM) | MIC (Ent. cloacae P99- 2647 [3]): 8 µg/mL (≈ 18.7 µM) | MIC (C. perfringens 3510): 0.5 µg/mL (≈ 1.17 µM) | MIC [4]: > 128 µg/mL | MIC [5]: 4 µg/mL (≈ 9.36 µM) | MIC (E. coli TEM 2+ DC2 4352): 2 µg/mL (≈ 4.68 µM) | MIC [6]: 32 µg/mL (≈ 74.9 µM) | MIC [7]: 32 µg/mL (≈ 74.9 µM) | MIC (B. fragilis Pen^r 3214): 16 µg/mL (≈ 37.4 µM) | MIC [8]: 32 µg/mL (≈ 74.9 µM) | MIC (C. difficile Fox^r 4380): 64 µg/mL (≈ 150 µM) | MIC [9]: 32 µg/mL (≈ 74.9 µM) | MIC [10]: 0.015 µg/mL (≈ 0.0351 µM) | MIC (Sal. typhimurium 3860 [11]): 4 µg/mL (≈ 9.36 µM) | MIC (C. perfringens 3511): 1 µg/mL (≈ 2.34 µM) | MIC (C. perfringens 3512): 1 µg/mL (≈ 2.34 µM) | MIC [12]: 1 µg/mL (≈ 2.34 µM) | MIC (Ent. cloacae P99+ 2646): 128 µg/mL (≈ 299 µM) | MIC [13]: 8 µg/mL (≈ 18.7 µM) | MIC (K. pneumoniae K1+ 4354): 4 µg/mL (≈ 9.36 µM) | MIC (K. pneumoniae 4005): 2 µg/mL (≈ 4.68 µM) | MIC [14]: 4 µg/mL (≈ 9.36 µM) | MIC (B. asaccharolyticus 4271): 0.5 µg/mL (≈ 1.17 µM) | MIC (Eubacterium limosum 3344): 1 µg/mL (≈ 2.34 µM) | MIC [15]: 64 µg/mL (≈ 150 µM) | MIC [16]: 32 µg/mL (≈ 74.9 µM) | MIC (E. coli 2891 [17]): 64 µg/mL (≈ 150 µM) | MIC [18]: 4 µg/mL (≈ 9.36 µM) | MIC (C. perfringens 3513): 2 µg/mL (≈ 4.68 µM) | MIC (E. coli TEM 2+ 4351 [19]): 4 µg/mL (≈ 9.36 µM) | MIC (Prot. vulgaris 2829 [20]): 4 µg/mL (≈ 9.36 µM) | MIC [21]: 1 µg/mL (≈ 2.34 µM) | MIC (C. ramosum 4272): 32 µg/mL (≈ 74.9 µM) | MIC (Prot. morganii Sm^r 2833): 8 µg/mL (≈ 18.7 µM) | MIC [22]: 128 µg/mL (≈ 299 µM) | MIC (Ser. marcescens 2840 [23]): 32 µg/mL (≈ 74.9 µM) | MIC (C. perfringens 2237): 2 µg/mL (≈ 4.68 µM) | MIC (C. perfringens 3509): 0.25 µg/mL (≈ 0.585 µM) | MIC [24]: 1 µg/mL (≈ 2.34 µM)

N[C@@H]1CONC1=O [D-Cycloserine, D-cycloserine, reference compound]
MIC (Sal. typhimurium 3860 [25]): 4 µg/mL (≈ 39.2 µM) | MIC (Ps. aeruginosa 4279): 16 µg/mL (≈ 157 µM) | MIC (E. coli 2891 [26]): 4 µg/mL (≈ 39.2 µM) | MIC (Prot. vulgaris 2829 [27]): 32 µg/mL (≈ 313 µM) | MIC (Staph. aureus 2865): 2 µg/mL (≈ 19.6 µM) | MIC (E. coli DC2 4353): 8 µg/mL (≈ 78.4 µM) | MIC (Ent. cloacae P99- 2647 [28]): 4 µg/mL (≈ 39.2 µM) | MIC (E. coli TEM 2+ 4351 [29]): 2 µg/mL (≈ 19.6 µM) | MIC (Ser. marcescens 2840 [30]): > 256 µg/mL
